The text below walks through data of patent EP3539977B1, “ENZYMES WITH CHLOROGENIC ACID ESTERASE ACTIVITY AND FERULOYL ESTERASE ACTIVITY” (SternEnzym GmbH & Co. KG, priority 2014, dated 2016).

Assay [1] deals with FAE of Penicillium expansum. The conditions noted are these: literature (42); cited from earlier work.
Assay [2] deals with T1, RsChlE (Rhizoctonia solani, UniProt A0A1D0BQV8).
T1 sequence (A0A1D0BQV8 39-563): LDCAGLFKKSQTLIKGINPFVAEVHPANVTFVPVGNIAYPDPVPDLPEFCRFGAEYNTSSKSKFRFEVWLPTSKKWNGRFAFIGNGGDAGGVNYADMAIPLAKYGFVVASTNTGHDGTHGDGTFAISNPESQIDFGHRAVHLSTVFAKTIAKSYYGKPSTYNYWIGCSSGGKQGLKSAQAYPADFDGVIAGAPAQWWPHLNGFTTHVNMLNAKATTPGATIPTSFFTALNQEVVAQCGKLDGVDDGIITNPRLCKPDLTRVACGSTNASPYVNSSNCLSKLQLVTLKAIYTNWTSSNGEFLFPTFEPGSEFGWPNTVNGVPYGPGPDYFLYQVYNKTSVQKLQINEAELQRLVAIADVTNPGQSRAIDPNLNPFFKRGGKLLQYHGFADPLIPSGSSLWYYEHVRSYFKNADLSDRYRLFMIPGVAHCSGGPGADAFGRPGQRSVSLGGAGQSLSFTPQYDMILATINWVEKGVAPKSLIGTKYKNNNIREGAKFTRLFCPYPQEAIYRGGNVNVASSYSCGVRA
Description: Substrate specificity of purified RsChlE. The conditions noted are these: 1 mM (or 1.95 mM) substrate, 1 h, 30 °C, 50 mM Bis-Tris pH 6.0. In kind it is biochemical. The procedure:
(§1) Chlorogenic acid esterase activity was determined at 37 °C in 50 mM Tris buffer at pH 7.5 using chlorogenic acid and methyl ferulate as standard substrates, unless otherwise stated. The release of the corresponding free acids was analyzed with HPLC-UV. If appropriate, the hydrolysis of other benzoic and cinnamic acid ester derivatives as well as feruloylated saccharides was measured with the same method. After incubation for one hour the reaction was terminated by doubling the reacting volume with acetonitrile. Samples were centrifuged (15 min, 15.000 × g) before injection to the HPLC (Chromolith Performance RP-18e reverse-phase column, 100 × 4.6 mm, Merck, Darmstadt, Germany). […] Substance elution was detected at 232 nm (benzoic and 3-hydroxybenzoic acid), 254 nm (4-hydroxybenzoic and vanillic acid), 275 nm (cinnamic and gallic acid), 306 nm (p-coumaric acid) and 323 nm (ferulic, caffeic, chlorogenic and sinapic acid) using a Shimadzu UV-Vis detector (SPD-10A VP, Shimadzu Deutschland GmbH, Duisburg, Germany). One unit of enzyme activity was defined as the amount of enzyme releasing one µmοl of free acid per minute under the specified conditions. All measurements were performed at least twice.
After purification of the recombinant RsChlE from the culture supernatant of Pichia pastoris with Ni-NTA, the enzyme was biochemically characterized. The experiments were performed like for UmChlE. pH and temperature optimums were analyzed. […] Table 4: Substrate specificity of purified RsChIE.
Purified RsChlE was incubated with 1 mM, or in an alternative experiment, 1.95 mM of different substrates for 1 h (at 30 °C, 50 mM Bis-Tris buffer pH 6.0). […] Numbers in parentheses are the estimates of the standard error.

The target in assay [3] is T2, UmChlE (Mycosarcoma maydis, UniProt A0A060S684, P492L).
T2 construct: purification of the chlorogenic acid esterase UmChlE from culture supernatant of U. maydis was accomplished by three complementary separation steps; made in house; host or cells: Ustilago maydis itself (native producer), culture supernatant; Q Sepharose FF, preparative IEF, polyamide column
The assay is classed as biochemical, Ustilago maydis. The conditions noted are these: 1 mM (or 1.95 mM) substrate, 1 h, 37 °C, 50 mM Tris pH 7.5; ND = activity not detectable. The method, then: as §1
Substrate specificity of the UmChlE was determined towards different cinnamate and benzoate esters as well as natural substrates, such as F-A, F-AX and F-AXG, with activity assays as described above. Three mM stock solutions of all substrates were prepared in water.
Purified UmChlE was incubated with 1 mM, or, in a further experiment, 1.95 mM of different substrates for 1 h (at 37 °C, 50 mM Tris buffer pH 7.5). Relative enzyme activities were calculated based on the most preferred substance of the UmChIE: chlorogenic acid which was set to 100 %. Numbers in parentheses are the estimates of the standard error.

In assay [4] the target is T2, UmChlE. Description: Kinetic parameters of UmChlE from initial hydrolysis rates. The assay is classed as biochemical, Ustilago maydis. The conditions noted are these: 0.005 - 1 mM substrate, 60 min, 37 °C, pH 7.5. The method, then:
Km and vmax values were calculated with non-linear regression using SigmaPlot 10.0 (Systat Software Inc., Chicago, USA). Blanks were carried out for all assays using water instead of enzyme. For calculation of kcat the molecular mass was determined using denaturing SDS-PAGE.
Kinetic properties were determined from initial hydrolysis rates for the most preferred substrates chlorogenic acid, MFA and MpCA. […] Consequently, the catalytic efficiency (kca/Km), a good indicator for enzyme efficiency and specificity, was better for chlorogenic acid than for the two synthetic substrates.

For assay [5], the system named is type B feruloyl esterases. The conditions noted are these: literature; cited from earlier work.
Assay [6] addresses T3, chlorogenic acid hydrolases from A. niger (Aspergillus niger, UniProt A7YN26).
T3 sequence (A7YN26 19-512): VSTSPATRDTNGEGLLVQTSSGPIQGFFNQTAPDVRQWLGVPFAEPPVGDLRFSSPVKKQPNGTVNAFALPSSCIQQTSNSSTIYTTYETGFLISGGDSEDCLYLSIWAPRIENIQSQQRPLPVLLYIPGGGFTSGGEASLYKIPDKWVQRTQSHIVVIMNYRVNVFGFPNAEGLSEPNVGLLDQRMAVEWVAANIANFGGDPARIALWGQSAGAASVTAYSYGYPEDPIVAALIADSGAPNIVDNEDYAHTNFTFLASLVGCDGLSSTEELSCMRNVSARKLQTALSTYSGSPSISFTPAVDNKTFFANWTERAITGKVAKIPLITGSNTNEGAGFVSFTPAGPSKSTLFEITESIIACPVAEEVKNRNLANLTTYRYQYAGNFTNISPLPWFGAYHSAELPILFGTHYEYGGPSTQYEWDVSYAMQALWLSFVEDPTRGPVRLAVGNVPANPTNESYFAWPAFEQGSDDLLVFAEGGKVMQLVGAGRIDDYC
Conditions: literature (13, 14); cited from earlier work.

Assay [7] deals with A. niger FAEB (Aspergillus niger, UniProt Q8WZI8). The conditions noted are these: literature (34); cited from earlier work.
Assay [8] has as its target T4, type B feruloyl esterase from N. crassa (Neurospora crassa, UniProt Q9HGR3).
T4 sequence (Q9HGR3 19-292): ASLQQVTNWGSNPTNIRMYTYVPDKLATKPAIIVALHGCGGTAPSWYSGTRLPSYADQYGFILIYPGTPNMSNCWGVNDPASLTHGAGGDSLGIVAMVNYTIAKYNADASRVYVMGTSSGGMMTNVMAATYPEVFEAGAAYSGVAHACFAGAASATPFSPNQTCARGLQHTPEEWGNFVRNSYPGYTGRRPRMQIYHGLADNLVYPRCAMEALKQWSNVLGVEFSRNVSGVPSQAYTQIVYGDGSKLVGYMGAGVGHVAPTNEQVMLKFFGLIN
Conditions: literature (35); cited from earlier work.

The target in assay [9] is T5, AoFaeB from A. oryzae (Aspergillus oryzae, UniProt Q2UP89).
T5 sequence (Q2UP89 19-540): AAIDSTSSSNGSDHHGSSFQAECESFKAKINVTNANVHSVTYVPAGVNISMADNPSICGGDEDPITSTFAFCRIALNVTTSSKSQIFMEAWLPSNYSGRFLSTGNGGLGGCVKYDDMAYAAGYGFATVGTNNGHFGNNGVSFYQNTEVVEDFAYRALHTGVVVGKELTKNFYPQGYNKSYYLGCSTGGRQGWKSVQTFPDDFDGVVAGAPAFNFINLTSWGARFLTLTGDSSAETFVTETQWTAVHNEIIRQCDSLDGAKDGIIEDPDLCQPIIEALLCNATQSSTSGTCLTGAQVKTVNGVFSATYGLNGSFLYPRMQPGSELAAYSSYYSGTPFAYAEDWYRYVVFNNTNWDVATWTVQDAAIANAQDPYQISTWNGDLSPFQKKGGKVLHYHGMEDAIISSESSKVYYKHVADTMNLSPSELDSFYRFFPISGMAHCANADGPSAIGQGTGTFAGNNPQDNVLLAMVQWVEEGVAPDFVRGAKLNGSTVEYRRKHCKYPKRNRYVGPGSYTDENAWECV
The conditions noted are these: literature (19); cited from earlier work.

Assay [10] concerns second published chlorogenic acid hydrolases from A. niger. Conditions: literature (11); cited from earlier work.
Assay [11] has as its target T2, UmChlE. In kind it is biochemical, Ustilago maydis. The conditions noted are these: buffer (Tris pH 7.5) / organic solvent 1:1 (v/v), 0.7 mM methyl ferulate, 1 h, 37 °C, 900 rpm; without solvent = 100 %; standard error in parentheses; ND = activity not detectable. The procedure: as §1, with “twice. […]” for “twice.”

Each structure is given as a SMILES string. “And” between values parts separate entries of the source, which are not always exact repeats. Equal values may be shown once.

T2 sequence (A0A060S684 22-585, stated change not applied): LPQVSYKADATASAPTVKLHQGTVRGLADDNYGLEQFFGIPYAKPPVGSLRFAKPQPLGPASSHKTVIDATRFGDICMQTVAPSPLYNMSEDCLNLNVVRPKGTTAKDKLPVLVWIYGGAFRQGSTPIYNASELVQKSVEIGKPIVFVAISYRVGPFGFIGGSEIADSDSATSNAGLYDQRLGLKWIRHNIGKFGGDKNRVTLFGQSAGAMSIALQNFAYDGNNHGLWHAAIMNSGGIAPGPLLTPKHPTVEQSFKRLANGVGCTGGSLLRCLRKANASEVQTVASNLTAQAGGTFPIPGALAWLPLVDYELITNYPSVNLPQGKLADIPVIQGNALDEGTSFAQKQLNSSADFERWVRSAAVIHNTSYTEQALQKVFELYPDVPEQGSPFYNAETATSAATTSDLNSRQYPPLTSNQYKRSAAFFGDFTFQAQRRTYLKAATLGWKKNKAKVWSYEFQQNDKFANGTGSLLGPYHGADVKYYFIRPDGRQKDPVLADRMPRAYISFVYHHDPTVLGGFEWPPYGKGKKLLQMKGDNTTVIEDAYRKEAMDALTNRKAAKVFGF
A. niger FAEB, sequence (Q8WZI8 18-521): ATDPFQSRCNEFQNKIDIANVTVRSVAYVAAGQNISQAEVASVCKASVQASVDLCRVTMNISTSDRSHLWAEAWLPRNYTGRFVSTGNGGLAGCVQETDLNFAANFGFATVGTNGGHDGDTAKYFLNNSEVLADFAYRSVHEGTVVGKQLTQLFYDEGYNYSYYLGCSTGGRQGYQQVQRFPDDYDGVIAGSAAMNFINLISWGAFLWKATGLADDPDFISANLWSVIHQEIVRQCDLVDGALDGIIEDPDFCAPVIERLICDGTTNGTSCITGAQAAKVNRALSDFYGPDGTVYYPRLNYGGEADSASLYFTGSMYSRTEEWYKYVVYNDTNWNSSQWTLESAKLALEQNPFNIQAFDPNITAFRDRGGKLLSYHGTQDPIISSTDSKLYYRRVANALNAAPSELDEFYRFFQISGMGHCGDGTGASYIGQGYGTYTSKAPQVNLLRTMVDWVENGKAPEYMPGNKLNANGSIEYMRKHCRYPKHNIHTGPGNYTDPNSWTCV

Consider `COc1cc(/C=C/C(=O)OC[C@@H]2OC(O)[C@H](O[C@@H]3OC[C@@H](O)[C@H](O)[C@H]3O)[C@H]2O)ccc1O` (stereo partly drawn) [F-AX, β-D-xylopyranosyl-(1→2)-5-O-trans-feruloyl-L-arabinofuranose], for which, in assay [1], the specific activities is on record as 5.3 U mg^-1. In assay [2], this molecule yielded a Specific activity of 4.97 U/mg. In addition, in [3], the Specific esterase activity was 1.6 U mg^-1 and 1.63 U mg^-1.

For the molecule `COC(=O)/C=C/c1ccc(O)cc1` [methyl p-coumarate], the kcat in assay [4] amounted to 0.49 s⁻¹. The same molecule had a Specific activity in assay [2] of 6.19 U/mg. Besides, in assay [5], the Km is 20 µM. Besides, the Specific esterase activity in [3] amounted to 1.43 U mg^-1.

With `O=C(/C=C/c1ccc(O)c(O)c1)O[C@@H]1C[C@](O)(C(=O)O)C[C@@H](O)[C@H]1O` [chlorogenic acid], the Km in assay [6] was 6.5 to 10 µM; in assay [7] it was 245 µM; in [8], 180 µM; in assay [9], 630 µM; in assay [10], 700 µM. Also, the kcat in assay [4] turned out to be 0.51 s⁻¹. In addition, the Specific activity in assay [2] is 5.15 U/mg. Moreover, the Specific esterase activity in [3] is 2.8 U mg^-1 and 2.76 U mg^-1.

Turning to `CN(C)C=O` [DMF], in assay [11], the Relative esterase activity is 1 (0.76) %.

For the molecule `COC(=O)/C=C/c1ccc(O)c(OC)c1` [methyl ferulate], in assay [1], the specific activities is 14.4 U mg^-1. Moreover, the kcat in assay [4] was found to be 0.38 s⁻¹. In [2], this molecule registered a Specific activity of 3.19 U/mg. Also, in assay [3], the Specific esterase activity turned out to be 1.27 U mg^-1.
